{"source": "paper PMC5063576", "about": "“High Potency VEGFRs/MET/FMS Triple Blockade by TAS-115 Concomitantly Suppresses Tumor Progression and Bone Destruction in Tumor-Induced Bone Disease Model with Lung Carcinoma Cells” (PLoS ONE, 2016)", "key": {"[1]": {"tested_on": "A549-Luc-BM1 cells in the mouse tibia", "assay": "Tumor-induced bone disease model, intra-tibial A549-Luc-BM1, bioluminescence imaging", "format": "in vivo, BALB/c nude mice", "conditions": "for tumor growth inhibition percentage (TGI): day 28, 4 weeks, oral once daily TAS-115 200 mg/kg, cabozantinib 15 mg/kg, sunitinib 40 mg/kg, crizotinib 100 mg/kg, ZA 0.2 mg/kg s.c. twice weekly", "method": "Tumor growth in the tibiae was monitored by bioluminescence imaging using an IVIS Lumina II Imaging System (PerkinElmer, MA). […] Images were analyzed using the Living Image 3.1 software (PerkinElmer). Total photon flux (TP) was calculated by summation of the photon flux of ventral and right lateral images. One week post tumor implantation, 8–9 animals were allocated to each experimental group by a stratified randomization method with SAS version 9.2 (SAS Institute Japan, Tokyo, Japan) using TP as an allocation parameter, following which drug treatment was then started. […] The doses of each drug were selected based on the maximum tolerated dose (MTD) in in-house studies (data not shown). […] Zoledronic acid (ZA) was subcutaneously injected twice weekly for 4 weeks at a dose of 0.2 mg/kg, which was a previously reported efficacious dose. The allocation day was set as day 0, and drug administration was initiated from day 1. As an indicator of changes in tumor growth during the dosing period, relative total photon flux (RTP), was calculated according to the following formula: RTPday n = (TP on each measurement day) / (TPday 0) × 100. TPday 0 is the TP on the allocation day."}, "[2]": {"tested_on": "A549-Luc-BM1-implanted tibia", "assay": "Bone morphometrical analyses by micro-CT", "format": "in vivo, BALB/c nude mice", "conditions": "for A549-Luc-BM1-induced changes in bone parameters (BV, TV, BMD, vBMD): micro-CT after 4 weeks dosing, TAS-115 200, cabozantinib 15, sunitinib 40, crizotinib 100 mg/kg oral, vs control", "method": "On day 29, the mice were euthanized by cervical dislocation under isoflurane anesthesia, and subsequently the A549-Luc-BM1-implanted tibia was removed and was fixed in 4% paraformaldehyde solution. Micro-CT imaging was performed by using Rm_CT2 (Rigaku corporation, Tokyo, Japan) with the following parameters: 90 kV, 160 μA, 3 min exposure, 10 mm field of view (20 μm voxel size). After scanning, 3D reconstruction was performed to produce a series of cross-sectional images by using specific software (3D Viewer Version 3.00.01, Rigaku corporation). In addition, bone mineral density (BMD) and 3D morphometrical primary parameters, including total volume (TV) and bone volume (BV), were calculated by using bone microstructure software (TRI/3D-BON-FCS64, Ratoc System Engineering, Tokyo, Japan). Volumetric BMD (vBMD), which has been reported to be a good index of osteoporosis, was calculated from primary parameters using the following formula: vBMD = BMD × BV / TV."}, "[3]": {"tested_on": "A549-Luc-BM1-implanted tibiae", "assay": "CD31 staining, microvessel density in bone lesion", "format": "in vivo, BALB/c nude mice", "conditions": "2 weeks oral; TAS-115 100 mg/kg, cabozantinib 15, crizotinib 100, sunitinib 40 mg/kg; vs control", "method": "(§1) On day 15, the mice were euthanized by cervical dislocation under isoflurane anesthesia, and their tibiae were collected. For CD31 staining, frozen sections (3 μm thick) were prepared using Kawamoto’s film method. Purified Rat Anti-Mouse CD31 (1:100, BD Pharmingen^TM) was detected using Simple Stain^TM Mouse MAX PO (Rat) (Nichirei) and 3,3’-diaminobenzidine (Dako, Glostrup, Denmark). For Ki-67 and TRAP staining, formalin-fixed paraffin-embedded sections (2 μm thick) were prepared. Anti-human Ki-67 Rabbit Monoclonal Antibody (1:50, Epitomics) was detected using the EnVisionTM^+ System (Dako). TRAP staining was performed using the TRAP/ALP Stain Kit (Wako Pure chemical Industries, Ltd.). To quantify each staining, whole slides were scanned under 20× magnification with the Aperio Scan-Scope XT Slide Scanner (Aperio Technologies, Inc., CA). To quantify CD31-positive microvessels as microvessel density (MVD, number/mm^2), four fields of tumor area per section excluding bone and necrotic tissue were analyzed by using Image-Pro Plus (Media Cybernetics, Inc., Carlsbad, CA). The mean values of the four areas were considered as the MVD of each animal. […] Ki-67-positive cells and total tumor cells were counted by using Image-Pro Plus. The Ki-67 index is expressed as a percentage (the number of Ki-67-positive tumor cells / the total number of the tumor cells × 100). The numbers of TRAP-positive osteoclasts were counted, and are expressed as the TRAP-positive osteoclast labeling index, (the number of TRAP-positive cells / the length of the boundary between tumor and trabecular bone (number/mm)). Cells that were TRAP-positive, had more than one nucleus, and were found on the surface of the bone, were identified as osteoclasts. The boundary length was calculated by Image-Pro Plus. All histopathological analyses were conducted in a blinded manner."}, "[4]": {"tested_on": "FMS, ERK1/2 and AKT phosphorylation in MDBMs", "assay": "In vitro MDBM signaling, M-CSF-stimulated FMS phosphorylation", "format": "cell-based, mouse", "conditions": "Western blotting, cabozantinib, crizotinib at 0.3 μM, sunitinib positive control compared with TAS-115", "method": "For analysis of the expression and phosphorylation levels of FMS, MET and VEGFR2, MDBMs were cultured with hM-CSF (20000 U/mL) for 4 days (400000 cells/dish in Suspension Culture Dishes (Corning Inc., NY). The phosphorylation levels of FMS and downstream signaling molecules were then analyzed in these MDBMs following incubation for 1 hr with test compounds at the indicated concentration. The phosphorylation of MET or VEGFR2 was analyzed in these MDBMs following stimulation with rhHGF (100 ng/mL, 10 min) or rhVEGF (100 ng/mL, 5 min), respectively. After incubation, the MDBMs were harvested, the cells were lysed and target signaling proteins were detected by immunoblotting. For analysis of VEGFR2 and its phosphorylated form, the lysate was immunoprecipiated with an anti-VEGFR antibody prior to immunoblotting."}, "A549-Luc-BM1 cells": {"tested_on": "A549-Luc-BM1 cells", "assay": "Proliferation of A549-Luc-BM1 cells (CellTiter-Glo)", "format": "cell-based", "conditions": "Homo sapiens, 72 hr post drug addition, read-out: 50% growth inhibitory concentration (GI50) for A549-Luc-BM1 cells", "method": "Supplementary file pone.0164830.s002.tif: S2 Fig The effect of TAS-115 on the proliferation of A549-Luc-BM1 cells. A549-Luc-BM1 cells were seeded on 96 well plates at a density of 10^3 cells/well in RPMI1640 containing 10% FBS. […] At 72 hr post drug addition, cell viability was determined using CellTiter-Glo^TM. The 50% growth inhibition (GI50) values were determined using SAS version 9.2. (TIF) Click here for additional data file."}, "[5]": {"assay": "Body weight change in the bone disease model", "format": "in vivo, BALB/c nude mice", "conditions": "4 weeks of treatment; TAS-115 200 mg/kg, crizotinib 100 mg/kg, sunitinib 40 mg/kg with crizotinib 100 mg/kg, oral once daily", "method": "Changes in body weight (BW) during the dosing period were determined using body weight change (BWC; %) as an indicator, which was calculated using the following formula: BWC; % = 100 × ((BW on each measurement day)–(BWday 0)) / (BWday 0). BWday 0 is the BW on the allocation day. The schedule for the in vivo study is depicted in the Supporting Information (S1 Fig)."}, "[6]": {"tested_on": "M-CSF dependent bone marrow macrophages (MDBMs)", "assay": "In vitro osteoclast differentiation assay (TRAP activity)", "format": "cell-based, mouse", "conditions": "MDBMs with hM-CSF and rhsRANKL for 4 days", "method": "To prepare macrophage colony-stimulating factor (M-CSF) dependent bone marrow macrophages (MDBMs), bone marrow cells were obtained from the femurs of male BALB/c mice (CLEA Japan) and adherent cells were cultured with human M-CSF (hM-CSF; 10000 U/mL) for 6 days. MDBMs were collected and cultured with hM-CSF (10000 U/mL) and recombinant human soluble RANKL (rhsRANKL)-GST (5 nM) for 4 days (25000 cells/well in a 96 well flat plate) for induction of differentiation into osteoclasts. Test compounds were then added to the culture media at the indicated concentration. TRAP activities were measured using the commercially available TRACP and ALP Assay Kit (TAKARA BIO INC)."}, "[7]": {"target": "T1, Recombinant human FMS dephosphorylated with lambda phosphatase (dephospho-rhFMS) (Homo sapiens, UniProt P07333)", "T1 sequence (P07333 538-972)": "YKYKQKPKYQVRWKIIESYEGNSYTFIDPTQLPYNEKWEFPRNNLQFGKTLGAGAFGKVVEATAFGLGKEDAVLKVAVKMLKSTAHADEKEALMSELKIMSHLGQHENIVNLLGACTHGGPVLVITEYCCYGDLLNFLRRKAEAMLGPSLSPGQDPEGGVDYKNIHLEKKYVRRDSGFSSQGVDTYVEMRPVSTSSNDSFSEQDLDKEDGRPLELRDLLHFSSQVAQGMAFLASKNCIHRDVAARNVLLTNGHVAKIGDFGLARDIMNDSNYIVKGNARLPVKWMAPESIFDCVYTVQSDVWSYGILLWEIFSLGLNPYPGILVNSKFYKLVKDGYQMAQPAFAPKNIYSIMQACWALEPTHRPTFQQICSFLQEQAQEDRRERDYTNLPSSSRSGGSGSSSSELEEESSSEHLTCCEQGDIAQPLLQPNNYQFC", "assay": "In vitro kinase assay, recombinant dephospho-FMS (LANCE Ultra TR-FRET)", "format": "biochemical", "conditions": "100 μM ATP", "method": "Enzyme inhibition studies were performed using LANCE® Ultra TR-FRET assay technology. Briefly, 0.03 μg/mL dephospho-rhFMS and 100 nM ULightTM-poly GT (4:1) (PerkinElmer) were mixed and incubated for 40 min at 25°C in 10 μL of reaction mixture containing 100 μM ATP, 15 mM tris (hydroxymethyl) aminomethane (Tris (pH 7.5)), 0.01% (v/v) Tween 20, 5 mM MgCl2, 2 mM dithiothreitol and various concentrations of the test compound. […] By referring to the TR-FRET signals of positive (no inhibitor) and negative (EDTA was added before the reaction was started) control wells, the percent inhibition of each well was calculated and the half-maximal inhibitory concentration (IC50) value was determined using a four-parameter sigmoidal equation. The assay of MET and VEGFR2 kinase activity was performed as described previously."}, "[8]": {"tested_on": "TRAP-positive osteoclasts at tumor-bone boundary", "assay": "TRAP staining of A549-Luc-BM1-implanted tibiae, osteoclast number", "format": "in vivo, BALB/c nude mice", "conditions": "2 weeks oral; TAS-115 200, cabozantinib 15, sunitinib 40, crizotinib 100 mg/kg, combination; vs control", "method": "as §1, with “CA).” for “CA). The mean values of the four areas were considered as the MVD of each animal.”, “The numbers of TRAP-positive osteoclasts were counted, and are expressed as the TRAP-positive osteoclast labeling index, (the number of TRAP-positive cells / the length of the boundary between tumor and trabecular bone (number/mm)). Cells that were TRAP-positive, had more than one nucleus, and were found on the surface of the bone, were identified as osteoclasts.” left out, “All histopathological analyses were conducted in a blinded manner.” left out"}}, "data": [{"smiles": "CCN(CC)CCNC(=O)c1c(C)[nH]c(/C=C2\\C(=O)Nc3ccc(F)cc32)c1C", "note": "[Sunitinib]", "values": [{"measurement": "tumor growth inhibition percentage (TGI)", "setting": "[1]", "value": 75, "unit": "%"}, {"measurement": "A549-Luc-BM1-induced changes in bone parameters (BV, TV, BMD, vBMD)", "setting": "[2]", "value": "significantly inhibited A549-Luc-BM1-induced changes in BV and TV, but not in BMD or vBMD"}, {"measurement": "microvessel density (MVD) within the tumor area in the bone lesion", "setting": "[3]", "value": "significantly reduced"}, {"measurement": "inhibition of M-CSF-stimulated phosphorylation of FMS, ERK1/2 and AKT (in words)", "setting": "[4]", "value": "comparable"}]}, {"smiles": "C[C@@H](Oc1cc(-c2cnn(C3CCNCC3)c2)cnc1N)c1c(Cl)ccc(F)c1Cl", "note": "[Crizotinib]", "values": [{"measurement": "GI50", "setting": "A549-Luc-BM1 cells", "value": 1100, "unit": "nM"}, {"measurement": "effect on tumor growth in the tibia (bioluminescence)", "setting": "[1]; crizotinib 100 mg/kg oral once daily for 4 weeks", "value": "did not impact on tumor growth at all"}, {"measurement": "effect on body weight", "setting": "[5]", "value": "did suppress body weight gain"}, {"measurement": "A549-Luc-BM1-induced changes in bone parameters (BV, TV, BMD, vBMD)", "setting": "[2]", "value": "did not affect any changes in the parameters"}, {"measurement": "microvessel density (MVD) within the tumor area in the bone lesion", "setting": "[3]", "value": "did not affect"}, {"measurement": "concentration that potently inhibited / markedly affected RANKL and M-CSF-induced mouse osteoclast formation", "setting": "[6]", "value": 1, "unit": "µM"}, {"measurement": "inhibition of M-CSF-stimulated phosphorylation of FMS, ERK1/2 and AKT (in words)", "setting": "[4]", "value": "moderate"}]}, {"smiles": "COc1cc2nccc(Oc3ccc(NC(=O)C4(C(=O)Nc5ccc(F)cc5)CC4)cc3)c2cc1OC", "note": "[Cabozantinib]", "values": [{"measurement": "IC50", "setting": "[7]", "value": 79, "unit": "nM"}, {"measurement": "tumor growth inhibition percentage (TGI)", "setting": "[1]", "value": 73, "unit": "%"}, {"measurement": "A549-Luc-BM1-induced changes in bone parameters (BV, TV, BMD, vBMD)", "setting": "[2]", "value": "significantly suppressed all of the changes"}, {"measurement": "microvessel density (MVD) within the tumor area in the bone lesion", "setting": "[3]", "value": "significantly reduced"}, {"measurement": "number of TRAP-positive osteoclasts at tumor-bone boundary", "setting": "[8]", "value": "did not affect"}, {"measurement": "inhibition of M-CSF-stimulated phosphorylation of FMS, ERK1/2 and AKT (in words)", "setting": "[4]", "value": "moderate"}]}, {"smiles": "O=P(O)(O)C(O)(Cn1ccnc1)P(=O)(O)O", "note": "[ZA, zoledronic acid]", "values": [{"measurement": "tumor growth inhibition percentage (TGI)", "setting": "[1]", "value": 27, "unit": "%"}, {"measurement": "total volume (TV) compared with the control group", "setting": "[2]; micro-CT, ZA 0.2 mg/kg s.c. twice weekly for 4 weeks", "value": "significantly decreased"}, {"measurement": "BMD, BV, and vBMD compared with control", "setting": "[2]; micro-CT, ZA 0.2 mg/kg s.c. twice weekly for 4 weeks, each value higher than normal group", "value": "significantly increased"}]}]}
